pIC50: −log10 of the molar value. Like-named read-outs stand apart in the source and are kept apart here.

The values below come from US7553972B2, “Benzamide inhibitors of the P2X7 receptor” (Pfizer, Inc., priority 2003, dated 2009).

The experiment deals with T1, P2X7 receptor (Homo sapiens, UniProt Q99572).
T1 construct: endogenous in cells
T1 sequence (Q99572 1-595): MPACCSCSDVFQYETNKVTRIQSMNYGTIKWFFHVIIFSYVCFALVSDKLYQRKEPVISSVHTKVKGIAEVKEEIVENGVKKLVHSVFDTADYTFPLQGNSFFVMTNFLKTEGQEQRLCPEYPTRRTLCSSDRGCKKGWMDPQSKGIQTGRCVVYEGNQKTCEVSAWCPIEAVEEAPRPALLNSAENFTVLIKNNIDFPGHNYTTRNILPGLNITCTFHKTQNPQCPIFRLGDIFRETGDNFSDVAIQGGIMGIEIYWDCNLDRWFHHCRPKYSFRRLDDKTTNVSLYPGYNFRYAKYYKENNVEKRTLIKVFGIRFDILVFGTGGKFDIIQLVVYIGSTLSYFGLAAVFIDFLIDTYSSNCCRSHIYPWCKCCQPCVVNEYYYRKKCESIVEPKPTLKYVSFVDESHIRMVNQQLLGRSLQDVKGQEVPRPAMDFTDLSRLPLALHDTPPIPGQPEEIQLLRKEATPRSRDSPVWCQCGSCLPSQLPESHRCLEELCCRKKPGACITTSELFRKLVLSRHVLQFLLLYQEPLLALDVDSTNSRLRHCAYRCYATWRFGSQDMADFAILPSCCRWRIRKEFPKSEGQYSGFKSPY
Put plainly: Inhibition of ATP-stimulated IL-1β release from LPS-activated blood monocytes (P2X7 antagonist activity, ELISA readout). Format: cell-based. The method, then: In like manner, the compounds of the invention can be tested for antagonist activity at the P2X7 receptor using the cytokine IL-1β as the readout. Blood collected from normal volunteers in the presence of heparin is fractionated using lymphocyte separation medium obtained from Organon Technica (Westchester, Pa.). […] The resulting cell pellet was suspended in 10 ml of Maintenance Medium and a cell count was performed. In an average experiment, 2×10^5 mononuclear cells are seeded into each well of 96-well plates in a total volume of 0.1 ml. Monocytes are allowed to adhere for 2 hours, after which the supernatants are discarded and the attached cells are rinsed twice and then incubated in Maintenance Medium overnight at 37° C. in a 5% CO2 environment.
The cultured monocytes can be activated with 10 ng/ml LPS (E. coli serotype 055:B5; Sigma Chemicals, St. Louis, Mo.). […] ATP then is introduced (from a 100 mM stock solution, pH 7) to achieve a final concentration of 2 mM and the plate is incubated at 37° C. for an additional 3 hours. Media were harvested and clarified by centrifugation, and their IL-1[…] content was determined by ELISA (R&D Systems; Minneapolis, Minn.).
Blood was collected from normal volunteers in the presence of heparin, and was fractionated using lymphocyte separation medium obtained from Organon Technica (Westchester, Pa.). […] The resulting cell pellet was suspended in 10 ml of Maintenance Medium and a cell count was performed. Approximately, 2×10^5 mononuclear cells were seeded into each well of 96-well plates in a total volume of 0.1 ml. Monocytes were allowed to adhere for 2 hours, after which the supernatants were discarded and the attached cells were rinsed twice and then incubated in Maintenance Medium overnight at 37° C. in a 5% CO2 environment.
The cultured monocytes were activated with 10 ng/ml LPS (E. coli serotype 055:B5; Sigma Chemicals, St. Louis, Mo.). […] ATP then was introduced (from a 100 mM stock solution, pH 7) to achieve a final concentration of 2 mM and the plate was incubated at 37° C. for an additional 3 hours. Media were harvested and clarified by centrifugation, and their IL-1β content was determined by ELISA (R&D Systems; Minneapolis, Minn.).

The mark [1] stands for this setting: monocytes from normal volunteers, 10 ng/ml LPS 2 h, compound 30 min, 2 mM ATP 3 h, IL-1β by ELISA, triplicate wells, read-out: IC50 (inhibit 50% of the stimulation of the release of IL-1β from monocytes by ATP).

With `NC(=O)Cn1ccc(-c2ccc(Cl)c(C(=O)NCC3(O)CCCCCC3)c2)n1` [Example 35, 5-(1-Carbamoylmethyl-1H-pyrazol-3-yl)-2-chloro-N-(1-hydroxy-cycloheptylmethyl)-benzamide], the pIC50 under setting [1] is 6.92. In the case of `Cc1cc(-c2ccc(Cl)c(C(=O)NCC3(O)CCCCCC3)c2)nn1CC#N` [Example 36, 2-Chloro-5-(1-cyanomethyl-5-methyl-1H-pyrazol-3-yl)-N-(1-hydroxy-cycloheptylmethyl)-benzamide], the pIC50 under setting [1] was 7.29.

Turning to `Cc1cc(-c2ccc(Cl)c(C(=O)NCC3(O)CCCCCC3)c2)nn1CC(N)=O` [Example 37, 5-(1-Carbamoylmethyl-5-methyl-1H-pyrazol-3-yl)-2-chloro-N-(1-hydroxy-cycloheptylmethyl)-benzamide], under setting [1], the pIC50 was 7.74. The same measure, in the same setting: the result for `O=C(NCC1(O)CCCCCC1)c1cc(-c2ccc(=O)n(CCO)n2)ccc1Cl` [Example 38, 2-Chloro-N-(1-hydroxy-cycloheptylmethyl)-5-[1-(2-hydroxy-ethyl)-6-oxo-1,6-dihydro-pyridazin-3-yl]-benzamide] reads 6.61; that for `Cc1cc(-c2ccc(Cl)c(C(=O)NCC3(O)CCCCCC3)c2)nn1C[C@@H](O)CO` [Example 40, 2-Chloro-5-[1-(2,3-dihydroxy-propyl)-5-methyl-1H-pyrazol-3-yl]-N-(1-hydroxy-cycloheptylmethyl)-benzamide], 8.10. Consider `CC(C)(O)Cn1ccc(-c2ccc(Cl)c(C(=O)NCC3(O)CCCCCC3)c2)n1` [Example 41, 2-Chloro-N-(1-hydroxy-cycloheptylmethyl)-5-[1-(2-hydroxy-2-methyl-propyl)-1H-pyrazol-3-yl]-benzamide], for which, under setting [1], the pIC50 is 7.52. On the same count and under the same terms, the result for `Cc1cc(-c2ccc(Cl)c(C(=O)NCC3(O)CCCCCC3)c2)nn1CC(C)(C)O` [Example 42, 2-Chloro-N-(1-hydroxy-cycloheptylmethyl)-5-[1-(2-hydroxy-2-methyl-propyl)-5-methyl-1H-pyrazol-3-yl]-benzamide] reads 8.10.

With `Cc1cc(-c2ccc(Cl)c(C(=O)NCC3(O)CCCCCC3)c2)n(C[C@@H](O)CO)n1` [Example 43, 2-Chloro-5-[2-(2,3-dihydroxy-propyl)-5-methyl-2H-pyrazol-3-yl]-N-(1-hydroxy-cycloheptylmethyl)-benzamide], under setting [1], the pIC50 was 6.89. Same read-out and setting: the result for `Cc1cc(-c2ccc(Cl)c(C(=O)NCC3(O)CCCCCC3)c2)nn1CC(O)CN` (stereo not drawn) [Example 44, 5-[1-(3-Amino-2-hydroxy-propyl)-5-methyl-1H-pyrazol-3-yl]-2-chloro-N-(1-hydroxy-cycloheptylmethyl)-benzamide] reads 8.60; that for `Cc1cc(-c2ccc(Cl)c(C(=O)NCC3(O)CCCCCC3)c2)nn1C[C@@](C)(O)CO` [Example 45, 2-Chloro-5-[1-(2,3-dihydroxy-2-methyl-propyl)-5-methyl-1H-pyrazol-3-yl]-N-(1-hydroxy-cycloheptylmethyl)-benzamide], 8.22. With `Cc1cc(-c2ccc(Cl)c(C(=O)NCC3(O)CCCCCC3)c2)nn1CC(=O)N1CCCC1` [Example 46, 2-Chloro-N-(1-hydroxy-cycloheptylmethyl)-5-[5-methyl-1-(2-oxo-2-pyrrolidin-1-yl-ethyl)-1H-pyrazol-3-yl]-benzamide], the pIC50 under setting [1] is 7.66. Same read-out and setting: the result for `Cc1cc(-c2ccc(Cl)c(C(=O)NCC3(O)CCCCCC3)c2)nn1CC(=O)NCCN(C)C` [Example 47, 2-Chloro-5-{1-[(2-dimethylamino-ethylcarbamoyl)-methyl]-5-methyl-1H-pyrazol-3-yl}-N-(1-hydroxy-cycloheptylmethyl)-benzamide] reads 8.46. `CCC(CO)NC(=O)Cn1nc(-c2ccc(Cl)c(C(=O)NCC3(O)CCCCCC3)c2)cc1C` (stereo not drawn) [Example 48, 2-Chloro-N-(1-hydroxy-cycloheptylmethyl)-5-{1-[(1-hydroxymethyl-propylcarbamoyl)-methyl]-5-methyl-1H-pyrazol-3-yl}-benzamide]: the pIC50 under setting [1] was 7.98. On the same count and under the same terms, the result for `CNC(=O)CNC(=O)Cn1nc(-c2ccc(Cl)c(C(=O)NCC3(O)CCCCCC3)c2)cc1C` [Example 49, 2-Chloro-N-(1-hydroxy-cycloheptylmethyl)-5-{5-methyl-1-[(methylcarbamoylmethyl-carbamoyl)-methyl]-1H-pyrazol-3-yl}-benzamide] reads 8.30. The same measure, in the same setting: the result for `Cc1cc(-c2ccc(Cl)c(C(=O)NCC3(O)CCCCCC3)c2)nn1CC(=O)NC(CO)CO` [Example 50, 2-Chloro-N-(1-hydroxy-cycloheptylmethyl)-5-{1-[(2-hydroxy-1-hydroxymethyl-ethylcarbamoyl)-methyl]-5-methyl-1H-pyrazol-3-yl}-benzamide] reads 8.30; that for `Cc1cc(-c2ccc(Cl)c(C(=O)NCC3(O)CCCCCC3)c2)nn1CC(=O)NC[C@H](C)O` [Example 51, 2-Chloro-N-(1-hydroxy-cycloheptylmethyl)-5-{1-[(2-hydroxy-propylcarbamoyl)-methyl]-5-methyl-1H-pyrazol-3-yl}-benzamide], 8.30. Same read-out and setting: under `Cc1cc(-c2ccc(Cl)c(C(=O)NCC3(O)CCCCCC3)c2)nn1CC(=O)Nc1ncccn1` [Example 52, 2-Chloro-N-(1-hydroxy-cycloheptylmethyl)-5-[5-methyl-1-(pyrimidin-2-ylcarbamoylmethyl)-1H-pyrazol-3-yl]-benzamide] stands 8.10. As for `Cc1cc(-c2ccc(Cl)c(C(=O)NCC3(O)CCCCCC3)c2)nn1CC(=O)N1C[C@H](O)[C@@H](O)C1` [Example 53, 2-Chloro-5-{1-[2-(3,4-dihydroxy-pyrrolidin-1-yl)-2-oxo-ethyl]-5-methyl-1H-pyrazol-3-yl}-N-(1-hydroxy-cycloheptylmethyl)-benzamide], the pIC50 under setting [1] was 7.81. Still for that read-out and setting: under `Cc1cc(-c2ccc(Cl)c(C(=O)NCC3(O)CCCCCC3)c2)nn1C[C@@H](O)CN` [Example 54, 5-[1-(3-Amino-2-hydroxy-propyl)-5-methyl-1H-pyrazol-3-yl]-2-chloro-N-(1-hydroxy-cycloheptylmethyl)-benzamide] stands 8.30. Take `Cc1cc(-c2ccc(Cl)c(C(=O)NCC3(O)CCCCCC3)c2)n(C[C@@H](O)CN)n1` [Example 55, 5-[2-(3-Amino-2-hydroxy-propyl)-5-methyl-2H-pyrazol-3-yl]-2-chloro-N-(1-hydroxy-cycloheptylmethyl)-benzamide]: under setting [1], the negative-log IC50 (pIC50) is 6.44.

As for `O=C(NCC1(O)CCCCCC1)c1cc(-c2cn[nH]n2)ccc1Cl` [Example 56, 2-Chloro-N-(1-hydroxy-cycloheptylmethyl)-5-(2H-[1,2,3]triazol-4-yl)-benzamide], the pIC50 under setting [1] is 6.32. Same read-out and setting: under `O=C(NCC1(O)CCCCCC1)c1cc(-c2cn(CC(O)CF)cn2)ccc1Cl` (stereo not drawn) [Example 57, 2-Chloro-5-[1-(3-fluoro-2-hydroxy-propyl)-1H-imidazol-4-yl]-N-(1-hydroxy-cycloheptylmethyl)-benzamide] stands under 6.00.

On to `O=C(NCC1(O)CCCCCC1)c1cc(-c2cc(CCO)on2)ccc1Cl` [Example 58, 2-Chloro-N-(1-hydroxy-cycloheptylmethyl)-5-[5-(2-hydroxy-ethyl)-isoxazol-3-yl]-benzamide], for which, under setting [1], the pIC50 is 6.37. Molecule `Cc1nc(-c2ccc(Cl)c(C(=O)NCC3(O)CCCCCC3)c2)cs1` [Example 59, 2-Chloro-N-(1-hydroxy-cycloheptylmethyl)-5-(2-methyl-thiazol-4-yl)-benzamide] had a pIC50 of 6.55.

The term pIC50 denotes −log10 of the IC50, conventionally taken in molar units.
